Test results taken from paper PMC9540496 (Clinical Pharmacology and Therapeutics, 2022).
Marks after values point to notes of the source that are not given here.

Legend:
[1] = cited from earlier work
[2] = Phase I crossover DDI study: rosuvastatin; type: in vivo, human
[3] = Static perpetrator DDI risk assessment; conditions: for Theoretical gut concentration (Igut): 200 mg/250 mL
[4] = Safety across the three phase I pharmacokinetic studies; type: in vivo, human
P‐gp = test: Anticipated effect of abrocitinib on digoxin, not formally evaluated; conditions: assuming complete P‐gp inhibition
[5] = Phase I crossover DDI study: metformin; conditions: metformin 500 mg alone; median (range)
clinical = conditions: both, human, plasma, oral, 500 mg
[6] = Phase I crossover DDI study: dabigatran etexilate; type: in vivo, human
[7] = Endogenous biomarkers NMN; type: in vivo, human; conditions: for Tmax: median (range)
[8] = rosuvastatin 10 mg ± abrocitinib 200 mg QD
[9] = both, human, plasma, oral, 75 mg
[10] = dabigatran etexilate 75 mg + abrocitinib 200 mg vs alone
[11] = dabigatran etexilate 75 mg ± abrocitinib 200 mg single dose

## C[C@H]1O[C@@H](O[C@H]2[C@@H](O)C[C@H](O[C@H]3[C@@H](O)C[C@H](O[C@H]4CC[C@@]5(C)[C@H](CC[C@@H]6[C@@H]5C[C@@H](O)[C@]5(C)[C@@H](C7=CC(=O)OC7)CC[C@]65O)C4)O[C@@H]3C)O[C@@H]2C)C[C@H](O)[C@@H]1O [digoxin]
[1]
  absolute bioavailability: 75–78%

## CC(C)c1nc(N(C)S(C)(=O)=O)nc(-c2ccc(F)cc2)c1/C=C/[C@@H](O)C[C@@H](O)CC(=O)O [Rosuvastatin, rosuvastatin]
[2]; 90% CIs within acceptance range of 80–125%
  plasma exposure and CLr on co‐administration with abrocitinib: unaffected
[2]; both, human, plasma, oral, 10 mg
  AUC(0-inf): 57.6 ng·h/mL
[2]; both, human, urine and plasma, oral, 10 mg
  CL renal: 243 mL/min
[2]; rosuvastatin 10 mg alone, geometric mean (geometric %CV)
  Cmax: 5.38 (53) ng/mL
[2]; [8]
  AUCinf ratio of abrocitinib + substrate vs. substrate alone AGm (90% CI): 1.02 (0.93–1.12) ^c
  CLr ratio of abrocitinib + substrate vs. substrate alone AGm (90% CI): 0.91 (0.83–1.01) ^c
  Cmax ratio of abrocitinib + substrate vs. substrate alone AGm (90% CI): 0.99 (0.86–1.14) ^c
[1]; ABCG2 (BCRP) polymorphism
  increase of rosuvastatin AUC with ABCG2 421A/A vs. wild‐type: ~ 2 fold
[1]; after oral dosing
  parent drug recovered in urine: 10%

## CCCS(=O)(=O)N[C@H]1C[C@@H](N(C)c2ncnc3[nH]ccc23)C1 [abrocitinib, Abrocitinib]
[3]
  absorption rate constant (ka): 0.067 min⁻¹
  fraction absorbed (fafg): 0.91
  Theoretical gut concentration (Igut): 0.8 mg/mL
[3]; MW 323.4
  Theoretical gut concentration (Igut): 2.47 mM
[3]; cutoff for intestinal transporters, 200 mg dose
  0.1 × molar dose/250 mL: 247 µM
[3]; cutoff for systemic transporters, unbound steady-state Cmax
  50 × Cmax,u: 65 µM
[3]; fu × (Cmax + ((fafg × ka × Dose/Qh)/B/P))
  Theoretical liver inlet concentration (Iin,max,u): 9.1 µM
[4]; all three pharmacokinetic studies, abrocitinib 200 mg with probe drugs
  serious or severe adverse events: No serious or severe adverse events
[4]; co‐administered with a single oral dose of dabigatran etexilate, rosuvastatin, or metformin, healthy volunteers
  tolerability: well‐tolerated
P‐gp
  anticipated maximum increase in digoxin AUC: ≤ 30%

## CN(C)C(=N)N=C(N)N [Metformin, metformin]
[5]
  Tmax: 4.00 (1.00–4.00) hour
clinical
  AUC(0-inf): 5200 ng·h/mL
  Cmax: 721 ng/mL

## CCCN(CCC)S(=O)(=O)c1ccc(C(=O)O)cc1 [probenecid]
[1]; OAT3 index inhibitor, approximate five‐fold
  decrease in CLr of rosuvastatin or furosemide in the presence of probenecid: ~80%

## [H]/N=C(/N)c1ccc(NCc2nc3cc(C(=O)N(CCC(=O)O)c4ccccn4)ccc3n2C)cc1 [Dabigatran, dabigatran]
[6]; abstract statement
  increase of plasma exposure on co‐administration with abrocitinib: ~ 50%
[6]; [9]
  Cmax: 30.2 ng/mL
  half-life: 536 ± 137 min
[6]; [10]
  increase of AUCinf on co‐administration with abrocitinib: 53%
  increase of Cmax on co‐administration with abrocitinib: 40%
[6]; [11]
  AUCinf ratio of abrocitinib + substrate vs. substrate alone AGm (90% CI): 1.53 (1.09–2.15)
  Cmax ratio of abrocitinib + substrate vs. substrate alone AGm (90% CI): 1.40 (0.92–2.13)

## CC(C)C(=O)O[C@H](CC(=O)[O-])C[N+](C)(C)C [IBC, isobutyryl‐L‐carnitine]
[7]; IBC
  AUC24 ratio of abrocitinib + metformin vs. metformin alone AGm (90% CI): 0.95 (0.85–1.05) ^c
  Cmax ratio of abrocitinib + metformin vs. metformin alone AGm (90% CI): 0.95 (0.85–1.06) ^c
[7]; IBC in plasma, metformin 500 mg alone, geometric mean (geometric %CV), N = 12
  AUC24: 1187 (56) ng•hour/mL
[7]; IBC, abrocitinib 200 mg + metformin 500 mg, geometric mean (geometric %CV)
  Cmax: 56.6 (55) ng/mL
[7]; IBC, abrocitinib 200 mg + metformin 500 mg
  Tmax: 14.0 (0.00–23.8) hour
[7]; IBC, compared with metformin alone
  effect of abrocitinib co‐administration with metformin on AUC24 or Cmax: did not alter
[7]; IBC, metformin 500 mg alone, geometric mean (geometric %CV)
  Cmax: 59.7 (56) ng/mL
[7]; IBC, metformin 500 mg alone
  Tmax: 16.0 (0.00–23.8) hour

## C=C[C@H]1C[N@@]2CC[C@H]1C[C@@H]2[C@@H](O)c1ccnc2ccc(OC)cc12 [quinidine]
[1]; P‐gp interaction, dabigatran labeling
  increase of dabigatran exposures: 50–60%
